In test [1] the test system is HCV genotype 1b replicon. The experiment in a line: HCV replicon assay, genotype 1b replicon EC50. Conditions: Hepatitis C virus, genotype 1b replicon, read-out: EC50 [gt-1b]. The format is cell-based, Hepatitis C virus. Here is the method:
Measuring Compound Inhibitory Potency (Genotype 1b Replicon EC50 (nM))
Measurement of inhibition by compounds was performed using the HCV replicon system. Several different replicons encoding different HCV genotypes or mutations were used. In addition, potency measurements were made using different formats of the replicon assay, including different ways of measurements and different plating formats. See Jan M. Vrolijk et al., A replicons-based bioassay for the measurement of interferons in patients with chronic hepatitis C, 110 J. VIROLOGICAL METHODS 201 (2003); Steven S. Carroll et al., Inhibition of Hepatitis C Virus RNA Replication by 2′-Modified Nucleoside Analogs, 278(14) J. BIOLOGICAL CHEMISTRY 11979 (2003). However, the underlying principles are common to all of these determinations, and are outlined below.
Stable neomycin phosphotransferase encoding replicon-harboring cell lines were used, so all cell lines were maintained under G418 selection prior to the assay. In some cases the cell lines encoded a luciferase:Neo^r fusion and could be assayed either directly by determination of RNA copy number, or indirectly through measurement of the luciferase activity.
To initiate an assay, replicon cells were plated in the presence of a dilution series of test compound in the absence of G418. Typically, the assays were performed in a 96-well plate format for manual operation, or a 384 well plate in an automated assay. Replicon cells and compound were incubated for 24-48 hours, depending on the assay. At the end of the assay, cells are washed free of media and compound and then lysed. For direct quantitation, RNA levels were measured by ^32P-probe hybridization and protection, or in a TAQMAN based assay and normalized to cellular cyclophilin A RNA levels. In some cases, luciferase activity was measured using a conventional luciferase assay. In all cases EC50 determinations were calculated as a percent of a DMSO control by fitting the data to a four parameter fit function.
For orientation: A replicon is a self-replicating genome or part of one, used to study replication in cells.

Test [2] deals with HCV NS3/4A protease genotype 1b (Hepatitis C virus genotype 1b, UniProt P26663). Briefly: HCV NS3/4A protease time-resolved fluorescence (TRF) assay, Ki against genotype 1b. The format is biochemical. Conditions: IC50 [gt-1b] (nM), NS3/4A genotype 1b, enzyme 0.2 nM. The method in brief:
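Ki was converted from fitted IC50 using IC50=Ki(1+[S]/KM) and 25 nM substrate. Protease (genotype 1b 0.2 nM, A156T 0.4 nM, 3a 0.025 nM) and compound were pre-mixed 30 min in pH 7.5 HEPES/NaCl/glycerol/DTT buffer. Cleavage then proceeded 2.5 h at room temperature, detected by time-resolved europium fluorescence (340/615 nm).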

SMILES strings stand for the structures. Where two headings read alike, the source gives them in different places.

As usually defined, the EC50 is the concentration at which the effect is half-maximal. One may read the IC50 as the concentration that gives 50% inhibition. On to `COc1ccc2nc(C(C)C)c3c(c2c1)CC[C@]1(C[C@H]2C(=O)N[C@]4(C(=O)NS(=O)(=O)C5(C)CC5)C[C@H]4/C=C\CCCCC[C@H](NC(=O)OC(C)(C)C)C(=O)N2C1)O3` [Example 2, tert-Butyl (2R,6S,13aS,14aR,16aS,Z)-5′-isopropyl-9′-methoxy-14a-(1-methylcyclopropylsulfonylcarbamoyl)-5,16-dioxo-1′,2′,3,5,6,7,8,9,10,11,13a,14,14a,15,16,16a-hexadecahydro-1H-spiro[cyclopropa[e]pyrrolo[1,2-a][1,4]diazacyclopentadecine-2,3′-pyrano[2,3-c]quinoline]-6-ylcarbamate], for which the EC50 in test [1] worked out at 1.19 nM. Besides, the IC50 in test [2] stood at 0.012 nM.

As to `COc1ccc2nc(C(C)C)c3c(c2c1)C(F)(F)C[C@]1(C[C@H]2C(=O)N[C@]4(C(=O)NS(=O)(=O)C5(C)CC5)C[C@H]4/C=C\CCCCC[C@H](NC(=O)OC(C)(C)C)C(=O)N2C1)O3` [Example 3, tert-Butyl (2S,6S,13aS,14aR,16aS,Z)-1′,1′-difluoro-5′-isopropyl-9′-methoxy-14a-(1-methylcyclopropylsulfonylcarbamoyl)-5,16-dioxo-1′,2′,3,5,6,7,8,9,10,11,13a,14,14a, 15,16,16a-hexadecahydro-1H-spiro[cyclopropa[e]pyrrolo[1,2-a][1,4]diazacyclopentadecine-2,3′-pyrano[2,3-c]quinoline]-6-ylcarbamate], the EC50 in test [1] turned out to be 2.9 nM. Further, inhibition in test [2] was half-maximal at 0.004 nM (IC50).

Take `CC(C)(C)OC(=O)N[C@H]1CCCCC/C=C\[C@@H]2C[C@@]2(C(=O)NS(=O)(=O)C2(C)CC2)NC(=O)[C@@H]2C[C@]3(CCc4c(c(C(F)(F)F)nc5ccccc45)O3)CN2C1=O` [Example 4, tert-Butyl (2R,6S,13aS,14aR,16aS,Z)-14a-(1-methylcyclopropylsulfonylcarbamoyl)-5,16-dioxo-5′-(trifluoromethyl)-1′,2′,3,5,6,7,8,9,10,11,13a,14,14a,15,16,16a-hexadecahydro-1H-spiro[cyclopropa[e]pyrrolo[1,2-a][1,4]diazacyclopentadecine-2,3′-pyrano[2,3-c]quinoline]-6-ylcarbamate]: the EC50 in test [1] was 0.813 nM. This compound also returned a concentration for half-maximal inhibition (IC50) in test [2] of 0.009 nM.

With `COc1ccc2nc(C(F)(F)F)c3c(c2c1)CC[C@]1(C[C@H]2C(=O)N[C@]4(C(=O)NS(=O)(=O)C5(C)CC5)C[C@H]4/C=C\CCCCC[C@H](NC(=O)OC(C)(C)C)C(=O)N2C1)O3` [Example 5, tert-Butyl (2R,6S,13aS,14aR,16aS,Z)-9′-methoxy-14a-(1-methylcyclopropylsulfonylcarbamoyl)-5,16-dioxo-5′-(trifluoromethyl)-1′,2′,3,5,6,7,8,9,10,11,13a,14,14a,15,16, 16a-hexadecahydro-1H-spiro[cyclopropa[e]pyrrolo[1,2-a][1,4]diazacyclopentadecine-2,3′-pyrano[2,3-c]quinoline]-6-ylcarbamate], in test [1], the EC50 turned out to be 1.36 nM. In test [2], this compound gave a concentration for half-maximal inhibition (IC50) of 0.015 nM.

With `CC(C)(C)OC(=O)N[C@H]1CCCCC/C=C\[C@@H]2C[C@@]2(C(=O)NS(=O)(=O)C2(C)CC2)NC(=O)[C@@H]2C[C@]3(CCc4c(c(C(F)(F)F)nc5ccc(OCCN6CCOCC6)cc45)O3)CN2C1=O` [Example 7, tert-Butyl ((2R,6S,13aS,14aR,16aS,Z)-14a-(((1-methylcyclopropyl)sulfonyl)carbamoyl)-9′-(2-morpholinoethoxy)-5,16-dioxo-5′-(trifluoromethyl)-1′,2′,3,5,6,7,8,9,10, 11,13a,14,14a,15,16,16a-hexadecahydro-1H-spiro[cyclopropa[e]pyrrolo[1,2-a][1,4]diazacyclopentadecine-2,3′-pyrano[2,3-c]quinolin]-6-yl)carbamate], in test [1], the 50% effective concentration (EC50) was found to be 0.433 nM. The compound further gave an IC50 in test [2] of 0.02 nM.

On to `COc1ccc2nc(C(F)F)c3c(c2c1)CC[C@]1(C[C@H]2C(=O)N[C@]4(C(=O)NS(=O)(=O)C5(C)CC5)C[C@H]4/C=C\CCCCC[C@H](NC(=O)OC(C)(C)C)C(=O)N2C1)O3` [Example 10, tert-butyl ((2R,6S,13aS,14aR,16aS,Z)-5′-(difluoromethyl)-9′-methoxy-14a-(((1-methylcyclopropyl)sulfonyl)carbamoyl)-5,16-dioxo-1′,2′,3,5,6,7,8,9,10,11,13a,14,14a,15, 16,16a-hexadecahydro-1H-spiro[cyclopropa[e]pyrrolo[1,2-a][1,4]diazacyclopentadecine-2,3′-pyrano[2,3-c]quinolin]-6-yl)carbamate], for which the EC50 in test [1] (K+ salt) stood at 1.11 nM. The IC50 in test [2] (K+ salt) amounted to 0.013 nM.

In the case of `COc1ccc2nc(C)c3c(c2n1)CC[C@]1(C[C@H]2C(=O)N[C@]4(C(=O)NS(=O)(=O)C5(C)CC5)C[C@H]4/C=C\CCCCC[C@H](NC(=O)OC(C)(C)C)C(=O)N2C1)O3` [Example 11, tert-butyl (2R,6S,13aS,14aR,16aS,Z)-2′-methoxy-6′-methyl-14a-(1-methylcyclopropylsulfonylcarbamoyl)-5,16-dioxo-3,5,6,7,8,9,9′,10,10′,11,13a,14,14a,15,16,16a-hexadecahydro-1H-spiro[cyclopropa[e]pyrrolo[1,2-a][1,4]diazacyclopentadecine-2,8′-pyrano[2,3-c][1,5]naphthyridine]-6-ylcarbamate], in test [1], the 50% effective concentration (EC50) was determined as 2.71 nM. In addition, the IC50 in test [2] turned out to be 0.007 nM.

As to `COc1ccc2nc(C3CC3)c3c(c2c1)C(F)(F)C[C@]1(C[C@H]2C(=O)N[C@]4(C(=O)NS(=O)(=O)C5(C)CC5)C[C@H]4/C=C\CCCCC[C@H](NC(=O)OC(C)(C)C)C(=O)N2C1)O3` [Example 19, tert-Butyl (2S,6S,13aS,14aR,16aS,Z)-5′-cyclopropyl-1′,1′-difluoro-9′-methoxy-14a-(1-methylcyclopropylsulfonylcarbamoyl)-5,16-dioxo-1′,2′,3,5,6,7,8,9,10,11,13a,14,14a, 15,16,16a-hexadecahydro-1H-spiro[cyclopropa[e]pyrrolo[1,2-a][1,4]diazacyclopentadecine-2,3′-pyrano[2,3-c]quinoline]-6-ylcarbamate], the concentration for a half-maximal effect (EC50) in test [1] (K+ salt) was found to be 1.98 nM. For the same compound, in test [2] (K+ salt), the IC50 was 0.018 nM.

For the compound `COc1ccc2nc(C)c3c(c2c1)C(F)(F)C[C@]1(C[C@H]2C(=O)N[C@]4(C(=O)NS(=O)(=O)C5(C)CC5)C[C@H]4/C=C\CCCCC[C@H](NC(=O)OC(C)(C)C)C(=O)N2C1)O3` [Example 20, tert-Butyl (2S,6S,13aS,14aR,16aS,Z)-1′,1′-difluoro-9′-methoxy-5′-methyl-14a-(1-methylcyclopropylsulfonylcarbamoyl)-5,16-dioxo-1′,2′,3,5,6,7,8,9,10,11,13a,14,14a,15, 16,16a-hexadecahydro-1H-spiro[cyclopropa[e]pyrrolo[1,2-a][1,4]diazacyclopentadecine-2,3′-pyrano[2,3-c]quinoline]-6-ylcarbamate], the EC50 in test [1] (K+ salt) came to 1.78 nM. For the same compound, in test [2] (K+ salt), the IC50 stood at 0.009 nM.

For `Cc1nc2ccccc2c2c1O[C@@]1(C[C@H]3C(=O)N[C@]4(C(=O)NS(=O)(=O)C5(C)CC5)C[C@H]4/C=C\CCCCC[C@H](NC(=O)OC(C)(C)C)C(=O)N3C1)CC2(F)F` [Example 25, tert-Butyl (2S,6S,13aS,14aR,16aS,Z)-1′,1′-difluoro-5′-methyl-14a-(1-methylcyclopropylsulfonylcarbamoyl)-5,16-dioxo-1′,2′,3,5,6,7,8,9,10,11,13a,14,14a,15,16,16a-hexadecahydro-1H-spiro[cyclopropa[e]pyrrolo[1,2-a][1,4]diazacyclopentadecine-2,3′-pyrano[2,3-c]quinoline]-6-ylcarbamate], in test [1], the concentration giving a half-maximal response (EC50) worked out at 1.11 nM. Further, in test [2], inhibition was half-maximal at 0.016 nM (IC50).

`Cc1nc2ccccc2c2c1O[C@]1(C=C2)C[C@H]2C(=O)N[C@]3(C(=O)NS(=O)(=O)C4CC4)C[C@H]3/C=C\CCCCC[C@H](NC(=O)OC(C)(C)C)C(=O)N2C1` [Example 26, tert-Butyl (2S,6S,13aS,14aR,16aS,Z)-14a-(cyclopropylsulfonylcarbamoyl)-5′-methyl-5,16-dioxo-3,5,6,7,8,9,10,11,13a,14,14a,15,16,16a-tetradecahydro-1H-spiro [cyclopropa[e]pyrrolo[1,2-a][1,4]diazacyclopentadecine-2,3′-pyrano[2,3-c]quinoline-]-6-ylcarbamate]: the EC50 in test [1] turned out to be 1.34 nM. Also, the IC50 in test [2] is 0.013 nM.
